# Laboratory results: article PMC3839906, “Structural and Physiological Analyses of the Alkanesulphonate-Binding Protein (SsuA) of the Citrus Pathogen Xanthomonas citri” (PLoS ONE, 2013)
# What was measured:
# [1] = target: T1, SsuA (alkanesulphonate-binding protein) (Xanthomonas citri, UniProt A0AAI7ZHA1); test: thermal shift assay, SYPRO orange; details: 5 mM ligand, 6 µM SsuA, 20 mM Tris pH 7.4, 50 mM NaCl
# T1 construct: mature periplasmic protein without the 42-residue signal peptide (972 bp amplicon), pET28a N-terminal His6 tag with thrombin site, tag cut with thrombin; expressed in E. coli BL21(DE3); one molecule per asymmetric unit
# [2] = target: T1, SsuA (alkanesulphonate-binding protein); test: X-ray crystal structure of the complex; details: ligand-binding pocket
# T1 sequence (A0AAI7ZHA1 entry or part of it): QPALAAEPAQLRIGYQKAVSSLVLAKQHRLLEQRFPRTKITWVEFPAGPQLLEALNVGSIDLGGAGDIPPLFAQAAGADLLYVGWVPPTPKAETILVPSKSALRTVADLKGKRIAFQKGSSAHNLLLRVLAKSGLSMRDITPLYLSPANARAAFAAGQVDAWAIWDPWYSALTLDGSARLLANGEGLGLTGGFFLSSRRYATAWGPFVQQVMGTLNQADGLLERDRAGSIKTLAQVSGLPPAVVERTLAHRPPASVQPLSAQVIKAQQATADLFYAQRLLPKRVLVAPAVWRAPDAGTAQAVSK
Structure (SMILES),Tm (unbound form 39.5 °C) [1],"X-ray crystal structure of the complex ([2]; 0.1 M HEPES pH 7.5, 1.6 M ammonium sulphate, 0.1 M NaCl)",X-ray crystal structure of the complex ([2]; PDB code as in the deposition statement b39 (b17 prints 3KSJ for MOPS)),X-ray crystal structure of the complex ([2]; PDB code as in the deposition statement b39 (b17 prints 3KSX for MES))
"O=S(=O)(O)CCN1CCN(CCO)CC1 [HEPES, 4-(2-hydroxyethyl)-1-piperazine ethane sulphonic acid]",45.8 °C,"PDB codes 3E4R (SsuA + HEPES), 3KSX (SsuA + MOPS) and 3KSJ (SsuA + MES)",,
"O=S(=O)(O)CCCN1CCOCC1 [MOPS, 3-morpholinopropane-1-sulphonic acid]",51 °C,,"PDB codes 3E4R (SsuA + HEPES), 3KSX (SsuA + MOPS) and 3KSJ (SsuA + MES)",
"O=S(=O)(O)CCNC1CCCCC1 [CHES, 2-(n-cyclohexylamino)-ethanesulphonic acid]",43.5 °C,,,
"O=S(=O)(O)CCN1CCOCC1 [MES, 2-(n-morpholino)-ethanesulphonic acid]",47.1 °C,,,"PDB codes 3E4R (SsuA + HEPES), 3KSX (SsuA + MOPS) and 3KSJ (SsuA + MES)"
